Legend:
[1] = Log D7.4 measurement (1-octanol/PBS buffer); assay type: physicochemical; settings: pH 7.4, n=3
Description: Partition coefficient was measured by mixing the [^18F]FS1P1 sample with 3 mL each of 1-octanol and buffer that is 0.1 M phosphate and pH equals 7.4 in a test tube. The mixture in the test tube was vortexed for 20 sec followed by centrifugation for 1 min at room temperature. Then 2 mL of the organic layer was transferred to a second test tube, and 1 mL of 1-octanol and 3 mL of PBS buffer were added. The resulting mixture was vortexed for 20 sec, followed by centrifugation for 1 min at room temperature. Then 1 mL of the organic and aqueous layer were taken separately for measurement. The radioactivity content values (count per minute) of two samples (1 mL each) from the 1-octanol and buffer layers were counted using a gamma counter. The partition coefficient Log D7.4 was determined by calculating as the decimal logarithm the ratio of cpm/mL between 1-octanol and PBS buffer. The measurements were repeated three times. The value of the partition coefficient is 2.62±0.31.

[2] = Radiometabolite analysis of nonhuman primate plasma samples; assay type: in vivo, macaque; settings: for percentage of the parental radiotracer of total radioactivity: macaque plasma
Description: HPLC radiometabolite analysis of the macaque plasma samples collected at different time points post-injection of [^18F]FS1P1 was performed as previously reported (H. Liu, et al., Mol. Imaging Biol., 2020, 22, 1362-1369.). A male macaque (˜10 kg) was intravenously injected with ˜0.35 GBq of [^18F]FS1P1. […] Plasma (400 μL) was then collected and mixed with 1.2 mL ice-cold acetonitrile to deproteinize. […] The eluted fractions were collected at one-minute intervals for a total of 16 minutes, the radioactivity of each fraction collection was counted in an automated gamma counter (Beckman, Brea, CA), and results were corrected by background radioactive counts and physical decay. The chromatography was regenerated represented by the percentage that was calculated by radioactivity count of every minute collection divided by the total injection amount on the HPLC system and multiplied by 100.

S1P1 = biological target: T1, S1P1 (Rattus norvegicus, UniProt P48303); test: In vitro autoradiography of rat spinal cord and brain sections with CS1P1 blocking; assay type: binding; settings: blocked by CS1P1 (5 μM), in words
T1 construct: conducted on rat spinal cord and brain section incubated with [^18F]FS1P1; from tissue; host or cells: rat brain (cortex, hippocampus) and spinal cord sections

[3] = MicroPET brain study in cynomolgus macaque; settings: macaque brain
Description: Using a Focus 220 microPET scanner to collect dynamic scans for 2 hours after intravenous injection of ˜0.35 GBq dose into male macaques. Radiometabolites were measured from arterial blood samples collected at 5, 15, 30, and 60 min post-injection of radiotracer. The HPLC eluent was collected, and fractions were counted in a gamma counter.
Male macaques (˜10 kg) were used for PET imaging data acquisition with a microPET Focus 220 scanner (Siemens Inc., Knoxville, TN). Animals were anesthetized using ketamine and glycopyrrolate and maintained with inhalation of isoflurane. Core temperature was kept at 37° C. with a heated water blanket. The head was secured in a customized head holder. […] Emission data were corrected for dead time, scatter, and attenuation and then reconstructed. […] Predefined brain regions of interest from the template were applied to the co-registered PET image to obtain regional time-activity curves. The measurement of the brain uptake of radiotracer was standardized to body weight and the dose of radioactivity injected to yield a standardized uptake value (SUV).
The brain uptakes of these tracers were measured by Focus 220 microPET scanner to collect dynamic scans for 2 hours after intravenous injection of ˜0.35 GBq dose into male cynomolgus macaques (8-9 kg).

T1 sequence (P48303 whole entry): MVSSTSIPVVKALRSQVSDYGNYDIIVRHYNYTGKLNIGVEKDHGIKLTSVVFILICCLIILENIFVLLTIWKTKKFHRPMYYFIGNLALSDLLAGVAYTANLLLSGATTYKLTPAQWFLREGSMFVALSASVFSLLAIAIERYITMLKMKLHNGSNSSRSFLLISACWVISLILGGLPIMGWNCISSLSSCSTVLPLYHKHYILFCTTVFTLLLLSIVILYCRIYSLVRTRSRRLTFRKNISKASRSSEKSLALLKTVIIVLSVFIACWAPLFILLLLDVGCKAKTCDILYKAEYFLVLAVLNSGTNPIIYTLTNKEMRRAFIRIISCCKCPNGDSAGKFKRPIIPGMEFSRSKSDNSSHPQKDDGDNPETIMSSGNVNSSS

With `Cc1ccccc1-c1ccc(-c2nc(-c3ccc(CN(C)CCC(=O)O)c([18F])c3)no2)cc1C(F)(F)F` [[^18F]FS1P1] the “Log D7.4” value [1] was 2.62±0.31, the logD [1] was 2.62 ± 0.31 and the “radiometabolites in macaque plasma” value ([2]; 5, 15, 30, and 60 min post injection, in words) was “No major metabolite was detected”. For the same molecule, the “percentage of the parental radiotracer of total radioactivity” value (“percentage” below) ([2]; 5 min post-injection) was 96%, the “percentage” value ([2]; 15 min post-injection) was 96% and the “percentage” value ([2]; 30 min post-injection) was 94%. The “percentage” value ([2]; 60 min post-injection) was 88%, the “autoradiography signal and blocking” value (S1P1) was “strong signal, which was blocked” and the “brain uptake, standard uptake value (SUV)” value ([3]; 120 min post-injection) was ~2.3. The “brain uptake, maximum SUV value” ([3]; from 20 to 120 min post-injection) was ~2.3.

Source: US20240228448A1 (Washington University, priority 2021, published 2024)
